Laboratory results taken from article PMC6979384, “Characterization of the plant homeodomain (PHD) reader family for their histone tail interactions” (Epigenetics & Chromatin, 2020).

Key:
Experiment in all cases: Histone peptide microarray
Format in all cases: binding, human
ING4 = conditions: GST-tagged ING4; histone peptide array; arrays performed twice, n of 4
In short: (§1)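 Binding of recombinant GST-fused PHD readers (0.5 μM) is detected on an array of 293 histone peptides, modified singly or in combination. An optimized array protocol is followed, and each intensity is the average of quadruplicate measurements with standard deviation.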

CHD5 (PPCC) = conditions: GST-tagged CHD5 (PPCC = Dual PHD + Dual Chromodomain); histone peptide array; arrays performed twice, n of 4
In short: as §1

PHRF1 (RP) = conditions: GST-tagged PHRF1 (RP); histone peptide array; arrays performed twice, n of 4
In short: as §1

KDM7A = conditions: GST-tagged KDM7A; histone peptide array; arrays performed twice, n of 4
In short: as §1

ING5 = conditions: GST-tagged ING5; histone peptide array; arrays performed twice, n of 4
In short: as §1

MLL5 = conditions: GST-tagged MLL5; histone peptide array; arrays performed twice, n of 4
In short: as §1

SP140L = conditions: GST-tagged SP140L; histone peptide array; arrays performed twice, n of 4
In short: as §1

AIRE (PP) = conditions: GST-tagged AIRE (PP); histone peptide array; arrays performed twice, n of 4
In short: as §1

BAZ2B = conditions: GST-tagged BAZ2B; histone peptide array; arrays performed twice, n of 4
In short: as §1

PHF21A = conditions: GST-tagged PHF21A; histone peptide array; arrays performed twice, n of 4
In short: as §1

KDM5A (3) = conditions: GST-tagged KDM5A (3); histone peptide array; arrays performed twice, n of 4
In short: as §1

PHF2 = conditions: GST-tagged PHF2; histone peptide array; arrays performed twice, n of 4
In short: as §1

BPTF (PB) = conditions: GST-tagged BPTF (PB = PHD + Bromodomain); histone peptide array; arrays performed twice, n of 4
In short: as §1

CHD4 (PPCC) = conditions: GST-tagged CHD4 (PPCC = Dual PHD + Dual Chromodomain); histone peptide array; arrays performed twice, n of 4
In short: as §1

PHF23 = conditions: GST-tagged PHF23; histone peptide array; arrays performed twice, n of 4
In short: as §1

KDM5B (1) = conditions: GST-tagged KDM5B (1); histone peptide array; arrays performed twice, n of 4
In short: as §1

KDM4C (TTP) = conditions: GST-tagged KDM4C (TTP = Tandem Tudor domain + PHD); histone peptide array; arrays performed twice, n of 4
In short: as §1

ING2 = conditions: GST-tagged ING2; histone peptide array; arrays performed twice, n of 4
In short: as §1

ING3 = conditions: GST-tagged ING3; histone peptide array; arrays performed twice, n of 4
In short: as §1

ING1 = conditions: GST-tagged ING1; histone peptide array; arrays performed twice, n of 4
In short: as §1

KDM5A (1) = conditions: GST-tagged KDM5A (1); histone peptide array; arrays performed twice, n of 4
In short: as §1

KDM5B (3) = conditions: GST-tagged KDM5B (3); histone peptide array; arrays performed twice, n of 4
In short: as §1

CHD5 (PCC) = conditions: GST-tagged CHD5 (PCC = PHD + Dual Chromodomain); histone peptide array; arrays performed twice, n of 4
In short: as §1

TAF3 = conditions: GST-tagged TAF3; histone peptide array; arrays performed twice, n of 4
In short: as §1

PHF8 = conditions: GST-tagged PHF8; histone peptide array; arrays performed twice, n of 4
In short: as §1

DPF2 (PPC2W2) = conditions: GST-tagged DPF2 (PPC2W2 = Dual PHD + C2W2-type Zn-finger); histone peptide array; arrays performed twice, n of 4
In short: as §1

DIDO1 = conditions: GST-tagged DIDO1; histone peptide array; arrays performed twice, n of 4
In short: as §1

PHF13 = conditions: GST-tagged PHF13; histone peptide array; arrays performed twice, n of 4
In short: as §1

TRIM66 (PB) = conditions: GST-tagged TRIM66 (PB = PHD + Bromodomain); histone peptide array; arrays performed twice, n of 4
In short: as §1

RAG2 = conditions: GST-tagged RAG2; histone peptide array; arrays performed twice, n of 4
In short: as §1

MORC3 (CW) = conditions: GST-tagged MORC3 (CW = CW-type Zn-finger); histone peptide array; arrays performed twice, n of 4
In short: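 Readout is array binding signal, reported as the mean and standard deviation over four replicates. Each purified GST-fused PHD domain was incubated at 0.5 μM with a library of 293 modified histone peptides.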

Substance	Array Heatmap signal, ING4 (ING4)	Array Heatmap signal, CHD5 (PPCC) (CHD5 (PPCC))	Array Heatmap signal, PHRF1 (RP) (PHRF1 (RP))	Array Heatmap signal, KDM7A (KDM7A)	Array Heatmap signal, ING5 (ING5)	Array Heatmap signal, MLL5 (MLL5)	Array Heatmap signal, SP140L (SP140L)	Array Heatmap signal, AIRE (PP) (AIRE (PP))	Array Heatmap signal, BAZ2B (BAZ2B)	Array Heatmap signal, PHF21A (PHF21A)	Array Heatmap signal, KDM5A (3) (KDM5A (3))	Array Heatmap signal, PHF2 (PHF2)	Array Heatmap signal, BPTF (PB) (BPTF (PB))	Array Heatmap signal, CHD4 (PPCC) (CHD4 (PPCC))	Array Heatmap signal, PHF23 (PHF23)	Array Heatmap signal, KDM5B (1) (KDM5B (1))	Array Heatmap signal, KDM4C (TTP) (KDM4C (TTP))	Array Heatmap signal, ING2 (ING2)	Array Heatmap signal, ING3 (ING3)	Array Heatmap signal, ING1 (ING1)	also measured
H4R3me2s + K5ac + K8ac + K12ac + K16ac + K20ac: H4 1-23	0.4768	0.5595	0.4884	0.3478	0.3711	0.5888	0.3449	0.4445	0.4891	0.4472	0.5291	0.6188	0.483	0.5891	0.5758	0.6719	0.4958	0.6618	0.4923	0.5887	Array Heatmap signal, KDM5A (1) (KDM5A (1)): 0.4598; Array Heatmap signal, KDM5B (3) (KDM5B (3)): 0.4887; Array Heatmap signal, CHD5 (PCC) (CHD5 (PCC)): 0.7755; Array Heatmap signal, TAF3 (TAF3): 0.282; Array Heatmap signal, PHF8 (PHF8): 0.384; Array Heatmap signal, DPF2 (PPC2W2) (DPF2 (PPC2W2)): 0.6954; Array Heatmap signal, DIDO1 (DIDO1): 0.8519; Array Heatmap signal, PHF13 (PHF13): 0.6071; Array Heatmap signal, TRIM66 (PB) (TRIM66 (PB)): 0.6231; Array Heatmap signal, RAG2 (RAG2): 0.3093; Array Heatmap signal, MORC3 (CW) (MORC3 (CW)): 0.4281
H4R3me2s: H4 1-23 [Peptide H4R3me2s]	0.4621	0.5547	0.4693	0.4774	0.3741	0.6336	0.3481	0.462	0.5351	0.451	0.6488	0.5067	0.3851	0.556	0.6199	0.7045	0.5129	0.6344	0.498	0.5148	Array Heatmap signal, KDM5A (1) (KDM5A (1)): 0.4765; Array Heatmap signal, KDM5B (3) (KDM5B (3)): 0.5522; Array Heatmap signal, CHD5 (PCC) (CHD5 (PCC)): 0.8078; Array Heatmap signal, TAF3 (TAF3): 0.3502; Array Heatmap signal, PHF8 (PHF8): 0.4581; Array Heatmap signal, DPF2 (PPC2W2) (DPF2 (PPC2W2)): 0.7228; Array Heatmap signal, DIDO1 (DIDO1): 0.7583; Array Heatmap signal, PHF13 (PHF13): 0.6145; Array Heatmap signal, TRIM66 (PB) (TRIM66 (PB)): 0.614; Array Heatmap signal, RAG2 (RAG2): 0.376; Array Heatmap signal, MORC3 (CW) (MORC3 (CW)): 0.4671
H4S1p + R3me2a: H4 1-23	0.5743	0.617	0.5062	0.485	0.4163	0.6348	0.4294	0.6422	0.5882	0.4964	0.5495	0.5511	0.4592	0.6213	0.6265	0.7314	0.5709	0.6378	0.5499	0.5568	Array Heatmap signal, KDM5A (1) (KDM5A (1)): 0.5298; Array Heatmap signal, KDM5B (3) (KDM5B (3)): 0.6926; Array Heatmap signal, CHD5 (PCC) (CHD5 (PCC)): 0.908; Array Heatmap signal, TAF3 (TAF3): 0.5622; Array Heatmap signal, PHF8 (PHF8): 0.44; Array Heatmap signal, DPF2 (PPC2W2) (DPF2 (PPC2W2)): 0.7324; Array Heatmap signal, DIDO1 (DIDO1): 0.8161; Array Heatmap signal, PHF13 (PHF13): 0.7049; Array Heatmap signal, TRIM66 (PB) (TRIM66 (PB)): 0.7721; Array Heatmap signal, RAG2 (RAG2): 0.4591; Array Heatmap signal, MORC3 (CW) (MORC3 (CW)): 0.5537
